In the experiment the target is T1, AURKA (Aurora A) (Homo sapiens, UniProt O14965).
T1 construct: purchased Thermo Fisher Scientific (Life Technologies) SelectScreen
In words: SelectScreen Z'LYTE. Format: biochemical. The procedure, abridged:
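SelectScreen broad panel; activity (Z'LYTE, Adapta) plus binding formats. ATP: Km app for CSF1R Z'LYTE; 10 for CAMK1 Adapta. Readout = % per kinase.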

What is called inhibition is the drop in the measured response relative to a control, in per cent.

T1 sequence (O14965 whole entry): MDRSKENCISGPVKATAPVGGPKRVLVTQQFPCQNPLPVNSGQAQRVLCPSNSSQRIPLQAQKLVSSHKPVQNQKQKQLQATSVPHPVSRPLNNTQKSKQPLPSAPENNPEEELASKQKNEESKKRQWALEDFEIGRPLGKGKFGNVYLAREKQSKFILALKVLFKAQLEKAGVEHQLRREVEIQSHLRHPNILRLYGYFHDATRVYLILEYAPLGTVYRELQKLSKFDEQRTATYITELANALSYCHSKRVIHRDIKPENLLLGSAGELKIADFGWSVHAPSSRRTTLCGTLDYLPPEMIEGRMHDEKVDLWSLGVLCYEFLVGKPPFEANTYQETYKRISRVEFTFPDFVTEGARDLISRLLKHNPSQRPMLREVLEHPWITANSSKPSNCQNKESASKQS

As to `CN(C(=O)CN1CCOCC1)c1ccc2sc3c(-c4cccc5c(=O)cc(N6CC7CCC(C6)O7)oc45)cccc3c2c1` [NU5455], the inhibition at 1 µM was -0.1%.
